Measured values reported in ChEMBL document CHEMBL5260839 (J Med Chem, 2019).
Calls of active or inactive are those of the source. The calls are words filed in the database; no cut-off is given here.

Key:
RS4-11 [1] = test: Induction of apoptosis in human RS4-11 cells incubated for 24 hrs by Annexin-V/PI staining based flow cytometric analysis; assay type: functional, cell-based
RS4-11 [2] = test: Potency index, ratio of MI-1061 IC50 to test compound IC50 for inhibition of cell growth in human RS4-11 cells incubated for 4 days by lactate dehydrogenase based WST-8 assay; assay type: functional; settings: time 4 day
RS4-11 [3] = test: Inhibition of cell growth in human RS4-11 cells incubated for 4 days in the presence of lenalidomide by Lactate dehydrogenase based WST-8 assay; assay type: functional; settings: time 4.0 day
MV4-11 [4] = test: Inhibition of cell growth in human MV4-11 cells incubated for 4 days in the presence of lenalidomide by Lactate dehydrogenase based WST-8 assay; assay type: functional; settings: time 4.0 day
MV4-11 [5] = test: Potency index, ratio of MI-1061 IC50 to test compound IC50 for inhibition of cell growth in human MV4-11 cells incubated for 4 days by lactate dehydrogenase based WST-8 assay; assay type: functional; settings: time 4 day
[6] = biological target: T1, Protein cereblon/E3 ubiquitin-protein ligase Mdm2 (Homo sapiens) (UniProt Q00987+Q96SW2); test: PROTAC activity at CRBN/MDM2 in human RS4-11 cells harbouring wildtype p53 assessed as upregulation of TP53 mRNA expression at 0.03 to 0.1 uM incubated for 6 hrs by qRT-PCR analysis; assay type: cell-based; settings: dose 0.03-0.1 µM
T1 sequence (Q00987 whole entry, looked up): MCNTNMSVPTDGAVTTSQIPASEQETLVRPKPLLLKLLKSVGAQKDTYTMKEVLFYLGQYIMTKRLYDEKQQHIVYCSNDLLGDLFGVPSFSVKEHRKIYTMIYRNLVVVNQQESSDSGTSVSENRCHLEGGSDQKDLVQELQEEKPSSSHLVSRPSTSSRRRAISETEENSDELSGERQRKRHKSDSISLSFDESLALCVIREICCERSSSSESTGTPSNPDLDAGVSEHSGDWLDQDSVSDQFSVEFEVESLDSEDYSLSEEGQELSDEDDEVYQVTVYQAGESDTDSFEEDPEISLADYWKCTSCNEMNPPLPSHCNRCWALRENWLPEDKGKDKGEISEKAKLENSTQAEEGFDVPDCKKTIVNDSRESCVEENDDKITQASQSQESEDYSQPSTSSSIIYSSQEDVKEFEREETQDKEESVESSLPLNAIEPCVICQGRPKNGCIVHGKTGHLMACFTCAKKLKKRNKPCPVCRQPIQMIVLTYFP
T1 sequence (Q96SW2 whole entry, looked up): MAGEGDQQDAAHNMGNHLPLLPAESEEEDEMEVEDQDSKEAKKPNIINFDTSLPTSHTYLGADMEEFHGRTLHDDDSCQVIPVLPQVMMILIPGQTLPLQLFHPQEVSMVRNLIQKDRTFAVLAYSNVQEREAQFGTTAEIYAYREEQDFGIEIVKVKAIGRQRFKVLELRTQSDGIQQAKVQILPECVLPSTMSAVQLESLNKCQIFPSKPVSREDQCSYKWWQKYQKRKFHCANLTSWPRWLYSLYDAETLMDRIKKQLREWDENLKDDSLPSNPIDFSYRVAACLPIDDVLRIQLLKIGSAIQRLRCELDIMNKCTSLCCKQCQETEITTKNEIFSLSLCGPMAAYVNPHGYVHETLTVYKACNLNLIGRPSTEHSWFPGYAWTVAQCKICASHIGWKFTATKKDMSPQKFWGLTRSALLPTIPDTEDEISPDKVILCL

[7] = biological target: T1, Protein cereblon/E3 ubiquitin-protein ligase Mdm2 (Homo sapiens); test: PROTAC activity at CRBN/MDM2 in human MV4-11 cells assessed as upregulation of p53 mRNA expression at 0.1 to 0.3 uM incubated for 6 hrs by qRT-PCR analysis; assay type: cell-based; settings: dose 0.1-0.3 µM
[8] = biological target: T1, Protein cereblon/E3 ubiquitin-protein ligase Mdm2 (Homo sapiens); test: PROTAC activity at CRBN/MDM2 in human MV4-11 cells assessed as upregulation of MDM2 mRNA expression at 0.1 to 0.3 uM incubated for 6 hrs by qRT-PCR analysis; assay type: cell-based; settings: dose 0.1-0.3 µM
[9] = biological target: T1, Protein cereblon/E3 ubiquitin-protein ligase Mdm2 (Homo sapiens); test: PROTAC activity at CRBN/MDM2 in human MV4-11 cells assessed as upregulation of p21 mRNA expression at 0.1 to 0.3 uM incubated for 6 hrs by qRT-PCR analysis; assay type: cell-based; settings: dose 0.1-0.3 µM
[10] = biological target: T1, Protein cereblon/E3 ubiquitin-protein ligase Mdm2 (Homo sapiens); test: PROTAC activity at CRBN/MDM2 in human MV4-11 cells assessed as upregulation of PUMA mRNA expression at 0.1 to 0.3 uM incubated for 6 hrs by qRT-PCR analysis; assay type: cell-based; settings: dose 0.1-0.3 µM
[11] = biological target: T1, Protein cereblon/E3 ubiquitin-protein ligase Mdm2 (Homo sapiens); test: PROTAC activity at CRBN/MDM2 in human MV4-11 cells assessed as upregulation of TP53 mRNA expression at 0.1 to 0.3 uM incubated for 6 hrs by qRT-PCR analysis; assay type: cell-based; settings: dose 0.1-0.3 µM
RS4-11 [12] = test: Induction of apoptosis in human RS4-11 cells at 0.001 to 1 uM incubated for 24 hrs by Annexin-V/PI staining based flow cytometric analysis relative to MI-1061; assay type: functional; settings: dose 0.001-1 µM
MOLM-13 [13] = test: Potency index, ratio of MI-1061 IC50 to test compound IC50 for inhibition of cell growth in human MOLM-13 cells harbouring wild type p53 incubated for 4 days by lactate dehydrogenase based WST-8 assay; assay type: functional; settings: time 4 day
MOLM-14 [14] = test: Potency index, ratio of MI-1061 IC50 to test compound IC50 for inhibition of cell growth in human MOLM-14 cells harbouring wild type p53 incubated for 4 days by lactate dehydrogenase based WST-8 assay; assay type: functional; settings: time 4 day
SIG-M5 [15] = test: Potency index, ratio of MI-1061 IC50 to test compound IC50 for inhibition of cell growth in human SIG-M5 cells harbouring wild type p53 incubated for 4 days by lactate dehydrogenase based WST-8 assay; assay type: functional; settings: time 4 day
ML-2 [16] = test: Potency index, ratio of MI-1061 IC50 to test compound IC50 for inhibition of cell growth in human ML-2 cells harbouring wild type p53 incubated for 4 days by lactate dehydrogenase based WST-8 assay; assay type: functional; settings: time 4 day
OCI-AML-5 [17] = test: Potency index, ratio of MI-1061 IC50 to test compound IC50 for inhibition of cell growth in human OCI-AML5 cells harbouring wild type p53 incubated for 4 days by lactate dehydrogenase based WST-8 assay; assay type: functional; settings: time 4 day
RS4-11 [18] = test: Antitumor activity against human RS4-11 cells xenografted in mouse assessed as reduction in tumor growth at 25 mg/kg, iv administered for a week; assay type: functional, organism-based; settings: time 1.0 weeks
RS4-11 [19] = test: Antitumor activity against human RS4-11 cells xenografted in mouse assessed as reduction in tumor growth at 10 mg/kg, iv administered three times a week; assay type: functional, organism-based; settings: time 1.0 weeks
RS4-11 [20] = test: Antitumor activity against human RS4-11 cells xenografted in mouse assessed as reduction in tumor growth at 25 mg/kg, iv administered three times a week relative to control; assay type: functional; design: scale not given: the % may be the effect or the level left; settings: time 1 weeks
[21] = Toxicity in mouse xenografted with human RS4-11 cells assessed as weight loss at 10 to 25 mg/kg, iv administered three times a week; assay type: organism-based; settings: in vivo, 168 h, dose 10-25 mg/kg, time 1 weeks
[22] = Toxicity in mouse xenografted with human RS4-11 cells assessed as signs of toxicity at 10 to 25 mg/kg, iv administered three times a week; assay type: organism-based; settings: in vivo, 168 h, dose 10-25 mg/kg, time 1 weeks
[23] = Toxicity in mouse xenografted with human RS4-11 cells assessed as weight loss at 25 mg/kg, iv administered for one week; assay type: organism-based; settings: in vivo, 168 h, time 1 weeks
[24] = Toxicity in mouse xenografted with human RS4-11 cells assessed as signs of toxicity at 25 mg/kg, iv administered for one week; assay type: organism-based; settings: in vivo, 168 h, time 1 weeks
RS4-11 [25] = test: Antitumor activity against human […] cells xenografted in mouse assessed as tumor regression at 25 mg/kg, administered daily 5 days a week for 2 weeks; assay type: functional, organism-based
RS4-11 [26] = test: Antitumor activity against human RS4-11 cells xenografted in mouse assessed as tumor regression at 50 mg/kg, administered every other day for 3 weeks; assay type: functional, organism-based
RS4-11 [27] = test: Antitumor activity against human RS4-11 cells xenografted in mouse assessed as inhibition of tumor growth at 50 mg/kg, administered once a week for 3 weeks; assay type: functional, organism-based
[28] = Toxicity in mouse xenografted with human RS4-11 cells assessed as weight loss at 50 mg/kg, administered every other day for 3 weeks; assay type: organism-based; settings: in vivo, 504 h
[29] = Toxicity in mouse xenografted with human RS4-11 cells assessed as signs o toxicity at 50 mg/kg, administered every other day for 3 weeks; assay type: organism-based; settings: in vivo, 504 h
[30] = Toxicity in mouse xenografted with human RS4-11 cells assessed as weight loss at 50 mg/kg, administered once a week for 3 weeks; assay type: organism-based; settings: in vivo, 504 h
[31] = Toxicity in mouse xenografted with human RS4-11 cells assessed as signs of toxicity at 50 mg/kg, administered once a week for 3 weeks; assay type: organism-based; settings: in vivo, 504 h
RS4-11 [32] = test: cells; settings: Homo sapiens, RS4-11, 96 h
MOLM-13 [33] = test: cells; settings: Homo sapiens, MOLM-13, 96 h
MOLM-14 [34] = test: cells; settings: Homo sapiens, MOLM-14, 96 h
SIG-M5 [35] = test: cells; settings: Homo sapiens, SIG-M5, 96 h
ML-2 [36] = test: cells; settings: Homo sapiens, ML-2, 96 h
OCI-AML-5 [37] = test: cells; settings: Homo sapiens, OCI-AML-5, 96 h
MONO-MAC-6 = test: cells; settings: Homo sapiens, MONO-MAC-6, 96 h
KG-1 = test: cells; settings: Homo sapiens, KG-1, 96 h

In the case of `O=C1CCC(N2Cc3c(C#CCCCNC(=O)c4ccc(NC(=O)[C@@H]5NC6(CCCCC6)[C@@]6(C(=O)Nc7cc(Cl)ccc76)[C@H]5c5cccc(Cl)c5F)cc4)cccc3C2=O)C(=O)N1` (some centres undefined), the Activity (RS4-11 [1]) is reported as “Dose-Dependent Effect”, the “Ratio IC50” value (RS4-11 [2]) is reported as >10 and the inhibition (RS4-11 [3]) is reported as “inactive”. The inhibition (MV4-11 [4]) was “Active”, the “Ratio IC50” value (MV4-11 [5]) was >10 and the Activity [6] was “inactive”. For the same compound, the Activity [7] was “Active”, the Activity [8] was “Active” and the Activity [9] was “Active”. The Activity [10] was “Active”, the Activity [11] was “inactive” and the “fold change (FC)” value (RS4-11 [12]) was >10. The “Ratio IC50” value (MOLM-13 [13]) was >10, the “Ratio IC50” value (MOLM-14 [14]) was >10 and the Ratio IC50 (SIG-M5 [15]) was 5.3. The “Ratio IC50” value (ML-2 [16]) was >10, the “Ratio IC50” value (OCI-AML-5 [17]) was >10 and the Activity (RS4-11 [18]) was “Active”. For the same compound, the Activity (RS4-11 [19]) was “Active”, the Activity (RS4-11 [20]) was 50% and the Activity [21] was “Non-Toxic”. The Activity [22] was “Non-Toxic”, the Activity [23] was “Non-Toxic” and the Activity [24] was “Non-Toxic”. The Activity (RS4-11 [25]) was “Active”, the Activity (RS4-11 [26]) was “Active” and the Activity (RS4-11 [27]) was “Active”. For the same compound, the Activity [28] was “Non-Toxic”, the Activity [29] was “Non-Toxic” and the Activity [30] was “Non-Toxic”. For the same compound, the Activity [31] was “Non-Toxic”, the IC50 (RS4-11 [32]) was 1.5 nM and the IC50 (MOLM-13 [33]) was 7.3 nM. The IC50 (MOLM-14 [34]) was 10.5 nM, the IC50 (SIG-M5 [35]) was 19.8 nM and the IC50 (ML-2 [36]) was 4.4 nM. The IC50 (OCI-AML-5 [37]) was 33.1 nM, the IC50 (MONO-MAC-6) was > 10000 nM and the IC50 (KG-1) was > 10000 nM.
